What was measured:
[1] = target: Human GLP-1 receptors (Homo sapiens, UniProt P43220); assay: GLP-1 receptor activation assay (CRE-luciferase reporter, CHO-K1)
Procedure: (§1) Then, the resulting increased luciferase activity was evaluated as a measurement of the effect on each receptor activation.
(§2) After 3 hours of transfection, medium was exchanged to Alpha Minimal Essential Medium (α-MEM) comprising 10% fetal bovine serum (FBS). Next day, the medium was exchanged to α-MEM comprising the analog of the present invention and 0.1% bovine serum albumin (BSA). After 6 hours, dual luciferase assay reagent was added in the same amount as the medium in which the cells were submerged, and firefly luciferase and Renilla luciferase activities were continuously measured. Firefly luciferase activity values were corrected against Renilla luciferase activity to yield transfection efficiency.

[2] = target: Human glucagon receptors (Homo sapiens, UniProt P47871); assay: Glucagon receptor activation assay (CRE-luciferase reporter, CHO-K1)
Chain of Human glucagon receptors (P47871 26-477): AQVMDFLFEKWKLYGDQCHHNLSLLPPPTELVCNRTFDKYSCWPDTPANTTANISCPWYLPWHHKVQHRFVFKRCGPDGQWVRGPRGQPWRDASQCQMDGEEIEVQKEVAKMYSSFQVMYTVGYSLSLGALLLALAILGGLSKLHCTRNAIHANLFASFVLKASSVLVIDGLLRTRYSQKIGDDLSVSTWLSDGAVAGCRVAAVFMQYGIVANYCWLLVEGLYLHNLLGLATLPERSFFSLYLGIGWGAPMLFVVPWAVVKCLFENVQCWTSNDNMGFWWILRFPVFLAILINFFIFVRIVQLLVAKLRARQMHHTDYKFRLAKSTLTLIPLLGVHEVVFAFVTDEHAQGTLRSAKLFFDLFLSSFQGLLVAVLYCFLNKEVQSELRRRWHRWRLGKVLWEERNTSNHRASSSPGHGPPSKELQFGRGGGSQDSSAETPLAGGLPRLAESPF
Procedure: as §1, §2

Chain of Human GLP-1 receptors (P43220 24-463): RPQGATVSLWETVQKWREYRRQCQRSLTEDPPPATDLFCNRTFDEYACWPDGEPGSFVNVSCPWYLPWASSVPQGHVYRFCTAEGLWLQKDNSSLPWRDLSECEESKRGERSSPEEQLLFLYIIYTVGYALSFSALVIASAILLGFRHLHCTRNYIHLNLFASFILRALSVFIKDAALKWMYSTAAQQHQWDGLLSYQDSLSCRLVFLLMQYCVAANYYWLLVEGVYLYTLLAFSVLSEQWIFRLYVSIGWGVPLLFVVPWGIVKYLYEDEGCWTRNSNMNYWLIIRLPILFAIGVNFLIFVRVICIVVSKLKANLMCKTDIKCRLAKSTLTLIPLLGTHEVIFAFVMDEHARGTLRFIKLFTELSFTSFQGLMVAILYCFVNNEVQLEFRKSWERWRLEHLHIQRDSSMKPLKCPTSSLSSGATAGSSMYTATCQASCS

SMILES | EC50 [1] [pM] | EC50 [2] [pM]
CCCCCCCCCCCCCCCCCC(=O)N[C@@H](CCC(=O)NCCOCCOCC(=O)NCCOCCOCC(=O)NCCCC[C@H](NC(=O)[C@H](CC(=O)O)NC(=O)[C@H](CO)NC(=O)[C@@H](NC(=O)[C@H](Cc1ccccc1)NC(=O)[C@@H](NC(=O)CNC(=O)[C@H](CCC(N)=O)NC(=O)C(C)(C)NC(=O)[C@@H](N)Cc1c[nH]cn1)[C@@H](C)O)[C@@H](C)O)C(=O)N[C@@H](CO)C(=O)N[C@@H](CCCCN)C(=O)N[C@@H](Cc1ccc(O)cc1)C(=O)N[C@@H](CC(C)C)C(=O)N[C@@H](CC(=O)O)C(=O)N[C@H]1CCC(=O)NCCCC[C@@H](C(=O)N[C@@H](CC(=O)O)C(=O)N[C@@H](Cc2ccccc2)C(=O)N[C@H](C(=O)N[C@@H](CCC(N)=O)C(=O)N[C@@H](Cc2c[nH]c3ccccc23)C(=O)N[C@@H](CC(C)C)C(=O)N[C@@H](CCSC)C(=O)N[C@@H](CC(N)=O)C(=O)N[C@H](C(=O)N[C@@H](CCCCN)C(=O)O)[C@@H](C)O)C(C)C)NC(=O)[C@H](C)NC(=O)[C@H](CCCNC(=N)N)NC(=O)[C@H](CCCNC(=N)N)NC1=O)C(=O)O [Compound 14, H-HAibQGTFTSDZSKYLDERRAKDFVQWLMNTK-OH] | < 10 | < 10
CCCCCCCCCCCCCCCCCC(=O)N[C@@H](CCC(=O)NCCOCCOCC(=O)NCCOCCOCC(=O)NCCCC[C@H](NC(=O)[C@H](CC(=O)O)NC(=O)[C@H](CO)NC(=O)[C@@H](NC(=O)[C@H](Cc1ccccc1)NC(=O)[C@@H](NC(=O)CNC(=O)[C@H](CCC(N)=O)NC(=O)C(C)(C)NC(=O)[C@@H](N)Cc1c[nH]cn1)[C@@H](C)O)[C@@H](C)O)C(=O)N[C@@H](CO)C(=O)N[C@@H](CCCCN)C(=O)N[C@@H](Cc1ccc(O)cc1)C(=O)N[C@@H](CC(C)C)C(=O)N[C@@H](CC(=O)O)C(=O)N[C@H]1CCC(=O)NCCCC[C@@H](C(=O)N[C@@H](CC(=O)O)C(=O)N[C@@H](Cc2ccccc2)C(=O)N[C@H](C(=O)N[C@@H](CCC(N)=O)C(=O)N[C@@H](Cc2c[nH]c3ccccc23)C(=O)N[C@@H](CC(C)C)C(=O)N[C@@H](CCSC)C(=O)N[C@@H](CC(N)=O)C(=O)N[C@H](C(=O)N[C@@H](CCCCN)C(N)=O)[C@@H](C)O)C(C)C)NC(=O)[C@H](C)NC(=O)[C@H](CCCNC(=N)N)NC(=O)[C@H](CCCNC(=N)N)NC1=O)C(=O)O [Compound 19, H-HAibQGTFTSDZSKYLDERRAKDFVQWLMNTK-NH2] | < 10 | < 10
CCCCCCCCCCCCCCCCCC(=O)N[C@@H](CCC(=O)NCCOCCOCC(=O)NCCOCCOCC(=O)NCCOCCOCC(=O)NCCCC[C@H](NC(=O)[C@H](CC(=O)O)NC(=O)[C@H](CO)NC(=O)[C@@H](NC(=O)[C@H](Cc1ccccc1)NC(=O)[C@@H](NC(=O)CNC(=O)[C@H](CCC(N)=O)NC(=O)C(C)(C)NC(=O)[C@@H](N)Cc1c[nH]cn1)[C@@H](C)O)[C@@H](C)O)C(=O)N[C@@H](CO)C(=O)N[C@@H](CCCCN)C(=O)N[C@@H](Cc1ccc(O)cc1)C(=O)N[C@@H](CC(C)C)C(=O)N[C@@H](CC(=O)O)C(=O)N[C@H]1CCC(=O)NCCCC[C@@H](C(=O)N[C@@H](CC(=O)O)C(=O)N[C@@H](Cc2ccccc2)C(=O)N[C@H](C(=O)N[C@@H](CCC(N)=O)C(=O)N[C@@H](Cc2c[nH]c3ccccc23)C(=O)N[C@@H](CC(C)C)C(=O)N[C@@H](CCSC)C(=O)N[C@@H](CC(N)=O)C(=O)N[C@H](C(=O)N[C@@H](CCCCN)C(=O)O)[C@@H](C)O)C(C)C)NC(=O)[C@H](C)NC(=O)[C@H](CCCNC(=N)N)NC(=O)[C@H](CCCNC(=N)N)NC1=O)C(=O)O [Compound 20, H-HAibQGTFTSDZSKYLDERRAKDFVQWLMNTK-OH] | < 10 | < 10

Continued, values first:

EC50 [1] [pM] | EC50 [2] [pM] | SMILES
< 10 | < 10 | CCCCCCCCCCCCCCCCCC(=O)N[C@@H](CCC(=O)NCCOCCOCC(=O)NCCOCCOCC(=O)NCCCC[C@H](NC(=O)[C@H](CC(=O)O)NC(=O)[C@H](CC(C)C)NC(=O)[C@H](Cc1ccc(O)cc1)NC(=O)[C@H](CCCCN)NC(=O)[C@H](CO)NC(=O)[C@H](Cc1ccc(O)cc1)NC(=O)[C@H](CC(=O)O)NC(=O)[C@H](CO)NC(=O)[C@@H](NC(=O)[C@H](Cc1ccccc1)NC(=O)[C@@H](NC(=O)CNC(=O)[C@H](CCC(N)=O)NC(=O)C(C)(C)NC(=O)[C@@H](N)Cc1c[nH]cn1)[C@@H](C)O)[C@@H](C)O)C(=O)N[C@@H](CCCNC(=N)N)C(=O)N[C@@H](CCCNC(=N)N)C(=O)N[C@@H](C)C(=O)N[C@@H](CCC(N)=O)C(=O)N[C@@H](CC(=O)O)C(=O)N[C@@H](Cc1ccccc1)C(=O)N[C@H](C(=O)N[C@@H](CCC(N)=O)C(=O)N[C@@H](Cc1c[nH]c2ccccc12)C(=O)N[C@@H](CC(C)C)C(=O)N[C@@H](CCSC)C(=O)N[C@@H](CC(N)=O)C(=O)N[C@H](C(=O)N[C@@H](CCCCN)C(=O)O)[C@@H](C)O)C(C)C)C(=O)O [Compound 15, H-HAibQGTFTSDYSKYLDZRRAQDFVQWLMNTK-OH]
< 10 | < 10 | CCCCCCCCCCCCCCCCCC(=O)N[C@@H](CCC(=O)NCCOCCOCC(=O)NCCOCCOCC(=O)NCCCC[C@H](NC(=O)[C@H](C)NC(=O)[C@H](CCCNC(=N)N)NC(=O)[C@H](CCCNC(=N)N)NC(=O)C(C)(C)NC(=O)[C@H](CC(=O)O)NC(=O)[C@H](CC(C)C)NC(=O)[C@H](Cc1ccc(O)cc1)NC(=O)[C@H](CCCCN)NC(=O)[C@H](CO)NC(=O)[C@H](Cc1ccc(O)cc1)NC(=O)[C@H](CC(=O)O)NC(=O)[C@H](CO)NC(=O)[C@@H](NC(=O)[C@H](Cc1ccccc1)NC(=O)[C@@H](NC(=O)CNC(=O)[C@H](CCC(N)=O)NC(=O)C(C)(C)NC(=O)[C@@H](N)Cc1c[nH]cn1)[C@@H](C)O)[C@@H](C)O)C(=O)N[C@@H](CC(=O)O)C(=O)N[C@@H](Cc1ccccc1)C(=O)N[C@H](C(=O)N[C@@H](CCC(N)=O)C(=O)N[C@@H](Cc1c[nH]c2ccccc12)C(=O)N[C@@H](CC(C)C)C(=O)N[C@@H](CCSC)C(=O)N[C@@H](CC(N)=O)C(=O)N[C@H](C(=O)N[C@@H](CCCCN)C(=O)O)[C@@H](C)O)C(C)C)C(=O)O [Compound 16]
< 10 | < 10 | CCCCCCCCCCCCCCCCCC(=O)N[C@@H](CCC(=O)NCCOCCOCC(=O)NCCOCCOCC(=O)NCCCC[C@H](NC(=O)[C@H](CC(=O)O)NC(=O)[C@H](CO)NC(=O)[C@@H](NC(=O)[C@H](Cc1ccccc1)NC(=O)[C@@H](NC(=O)CNC(=O)[C@H](CCC(N)=O)NC(=O)C(C)(C)NC(=O)[C@@H](N)Cc1c[nH]cn1)[C@@H](C)O)[C@@H](C)O)C(=O)N[C@@H](CO)C(=O)N[C@@H](CCCCN)C(=O)N[C@@H](Cc1ccc(O)cc1)C(=O)N[C@@H](CC(C)C)C(=O)N[C@@H](CC(=O)O)C(=O)N[C@H]1CSCc2cccc(c2)CSC[C@@H](C(=O)N[C@@H](CC(=O)O)C(=O)N[C@@H](Cc2ccccc2)C(=O)N[C@H](C(=O)N[C@@H](CCC(N)=O)C(=O)N[C@@H](Cc2c[nH]c3ccccc23)C(=O)N[C@@H](CC(C)C)C(=O)N[C@@H](CCSC)C(=O)N[C@@H](CC(N)=O)C(=O)N[C@H](C(=O)N[C@@H](CCCCN)C(=O)O)[C@@H](C)O)C(C)C)NC(=O)[C@H](C)NC(=O)[C@H](CCCNC(=N)N)NC(=O)[C@H](CCCNC(=N)N)NC1=O)C(=O)O [Compound 22, H-HAibQGTFTSDZSKYLDCRRACDFVQWLMNTK-OH]

From patent US11713344B2 (DONG-A ST CO., LTD., priority 2017, dated 2023)
